Test results taken from patent US20230033285A1, “Protease Inhibitors for Treatment of Coronavirus Infections” (The Scripps Research Institute, priority 2021, published 2023).

System: SARS-CoV-2
Test: microbe, parasite or virus in culture
Type: cell-based
Conditions: Severe acute respiratory syndrome coronavirus 2, HeLa-ACE2, 24 h, read-out: EC50, μM (Hela)

Question: Which EC50 does the source give for `CC1(C)[C@@H]2[C@@H](C(=O)N[C@H](C#N)C[C@@H]3CCCNC3=O)N(C(=O)[C@@H](NC(=O)C(F)(F)F)C3CCOCC3)C[C@@H]21` [Compound 68, (1R,2S,5S)-N-((S)-1-cyano-2-((S)-2-oxopiperidin-3-yl)ethyl)-6,6-dimethyl-3-((S)-2-(tetrahydro-2H-pyran-4-yl)-2-(2,2,2-trifluoroacetamido)acetyl)-3-azabicyclo[3.1.0]hexane-2-carboxamide] here?
Answer: > 1 µM

Question: `CC(C)(C)[C@H](NC(=O)C(F)(F)F)C(=O)N1C[C@H]2[C@@H]([C@H]1C(=O)N[C@H](C=O)C[C@@H]1CCCNC1=O)C2(C)C` [Compound 132, (1R,2S,5S)-3-((S)-3,3-dimethyl-2-(2,2,2-trifluoroacetamido)butanoyl)-6,6-dimethyl-N-((S)-1-oxo-3-((S)-2-oxopiperidin-3-yl)propan-2-yl)-3-azabicyclo[3.1.0]hexane-2-carboxamide] was tested. Which EC50 did it give?
Answer: 0.5 to 1 µM

Question: How did the EC50 turn out when `CC1(C)[C@@H]2[C@@H](C(=O)N[C@H](C=O)C[C@@H]3CCNC3=O)N(C(=O)COc3ccc(OC(F)(F)F)cc3)C[C@@H]21` [Compound 36, (1R,2S,5S)-6,6-dimethyl-N-((S)-1-oxo-3-((S)-2-oxopyrrolidin-3-yl)propan-2-yl)-3-(2-(4-(trifluoromethoxy)phenoxy)acetyl)-3-azabicyclo[3.1.0]hexane-2-carboxamide] was run?
Answer: 0.2 to 0.5 µM

Same assay, conditions: Severe acute respiratory syndrome coronavirus 2; HeLa-ACE2 cells infected with SARS-CoV-2, 24 h, immunofluorescence of infected cells; read-out: EC50, μM (Hela)

Question: `CC1(C)[C@@H]2[C@@H](C(=O)N[C@H](C#N)C[C@@H]3CCNC3=O)N(C(=O)C(=O)Nc3ccccc3F)C[C@@H]21` [Compound 59, (1R,2S,5S)-N-((S)-1-cyano-2-((S)-2-oxopyrrolidin-3-yl)ethyl)-3-(2-((2-fluorophenyl)amino)-2-oxoacetyl)-6,6-dimethyl-3-azabicyclo[3.1.0]hexane-2-carboxamide] was tested. Which EC50 did it give?
Answer: > 1 µM

Question: Which EC50 does the source give for `CC(C)(C)NC(=O)C(=O)N1C[C@H]2[C@@H]([C@H]1C(=O)N[C@H](C=O)C[C@@H]1CCCNC1=O)C2(C)C` [Compound 46, (1R,2S,5S)-3-(2-(tert-butylamino)-2-oxoacetyl)-6,6-dimethyl-N-((S)-1-oxo-3-((S)-2-oxopiperidin-3-yl)propan-2-yl)-3-azabicyclo[3.1.0]hexane-2-carboxamide] here?
Answer: > 1 µM

Question: How did the EC50 turn out when `COc1ccccc1NC(=O)C(=O)N[C@@H](CC(C)C)C(=O)N[C@@H](C[C@@H]1CCNC1=O)C(=O)CO` [Compound 7] was run?
Answer: > 1 µM

Question: `CC(C)(C)C[C@H](NC(=O)C(=O)Nc1ccccc1F)C(=O)N[C@@H](C[C@@H]1CCCNC1=O)C(=O)CO` [Compound 87, N^1-(2-fluorophenyl)-N^2-((S)-1-(((S)-4-hydroxy-3-oxo-1-((S)-2-oxopiperidin-3-yl)butan-2-yl)amino)-4,4-dimethyl-1-oxopentan-2-yl)oxalamide] was tested. Which EC50 did it give?
Answer: < 0.05 µM

Question: For `CC(C)C[C@H](NC(=O)c1cc(-c2ccccc2F)on1)C(=O)N[C@H](C=O)C[C@@H]1CCCNC1=O` [Compound 126, 5-(2-fluorophenyl)-N-((S)-4-methyl-1-oxo-1-(((S)-1-oxo-3-((S)-2-oxopiperidin-3-yl)propan-2-yl)amino)pentan-2-yl)isoxazole-3-carboxamide], which EC50 is on record?
Answer: 0.05 to 0.2 µM

Question: With `CC(C)C[C@H](NC(=O)C(=O)Nc1ccccc1F)C(=O)N[C@@H](C[C@@H]1CCCCNC1=O)C(=O)CO` [Compound 34, N^1-(2-fluorophenyl)-N^2-((S)-1-(((S)-4-hydroxy-3-oxo-1-((S)-2-oxoazepan-3-yl)butan-2-yl)amino)-4-methyl-1-oxopentan-2-yl)oxalamide] as the compound, how does the EC50 read?
Answer: > 1 µM

Question: `CCc1cccc(CC)c1NC(=O)C(=O)N[C@@H](CC(C)C)C(=O)N[C@@H](C[C@@H]1CCCNC1=O)C(=O)CO` [Compound 28, N^1-(2,6-diethylphenyl)-N^2-((S)-1-(((S)-4-hydroxy-3-oxo-1-((S)-2-oxopiperidin-3-yl)butan-2-yl)amino)-4-methyl-1-oxopentan-2-yl)oxalamide] was tested. Which EC50 did it give?
Answer: < 0.05 µM

Question: `Cc1cccc(C)c1NC(=O)C(=O)N[C@@H](CC(C)C)C(=O)N[C@@H](C[C@@H]1CCNC1=O)C(=O)CO` [Compound 12, N^1-(2,6-dimethylphenyl)-N^2-((S)-1-(((S)-4-hydroxy-3-oxo-1-((S)-2-oxopyrrolidin-3-yl)butan-2-yl)amino)-4-methyl-1-oxopentan-2-yl)oxalamide] was tested. Which EC50 did it give?
Answer: > 1 µM

Question: How did the EC50 turn out when `CC(C)C[C@H](NC(=O)C(=O)Nc1ccccc1F)C(=O)N[C@@H](C[C@@H]1CCCNC1=O)C(=O)COC(=O)OC(C)C` [Compound 107, (S)-3-((S)-2-(2-((2-fluorophenyl)amino)-2-oxoacetamido)-4-methylpentanamido)-2-oxo-4-((S)-2-oxopiperidin-3-yl)butyl isopropyl carbonate] was run?
Answer: < 0.05 µM

Question: How did the EC50 turn out when `CC(C)(C)NC(=O)C(=O)N1C[C@@H]2CCC[C@@H]2[C@H]1C(=O)N[C@@H](C[C@@H]1CCNC1=O)C(=O)CO` [Compound 31, (1S,3aR,6aS)-2-(2-(tert-butylamino)-2-oxoacetyl)-N-((S)-4-hydroxy-3-oxo-1-((S)-2-oxopyrrolidin-3-yl)butan-2-yl)octahydrocyclopenta[c]pyrrole-1-carboxamide] was run?
Answer: > 1 µM

Question: How did the EC50 turn out when `CCCCCCC(=O)OCC(=O)[C@H](C[C@@H]1CCNC1=O)NC(=O)[C@H](CC(C)C)NC(=O)c1cc2c(OC)cccc2[nH]1` [Compound 119, (S)-3-((S)-2-(4-methoxy-1H-indole-2-carboxamido)-4-methylpentanamido)-2-oxo-4-((S)-2-oxopyrrolidin-3-yl)butyl heptanoate] was run?
Answer: 0.05 to 0.2 µM

Question: Which EC50 does the source give for `Cc1ccccc1NC(=O)C(=O)N[C@@H](CC(C)C)C(=O)N[C@@H](C[C@@H]1CCCNC1=O)C(=O)CO` [Compound 27, N^1-((S)-1-(((S)-4-hydroxy-3-oxo-1-((S)-2-oxopiperidin-3-yl)butan-2-yl)amino)-4-methyl-1-oxopentan-2-yl)-N^2-(o-tolyl)oxalamide] here?
Answer: 0.05 to 0.2 µM

Question: Which EC50 does the source give for `COc1cccc(OC)c1NC(=O)C(=O)N[C@@H](CC(C)C)C(=O)N[C@@H](C[C@@H]1CCNC1=O)C(=O)CO` [Compound 15, N^1-(2,6-dimethoxyphenyl)-N^2-((S)-1-(((S)-4-hydroxy-3-oxo-1-((S)-2-oxopyrrolidin-3-yl)butan-2-yl)amino)-4-methyl-1-oxopentan-2-yl)oxalamide] here?
Answer: > 1 µM

Question: For `CCCCCCC(=O)OCC(=O)[C@H](C[C@@H]1CCNC1=O)NC(=O)[C@H](CC(C)C)NC(=O)C(=O)NC1CCCCC1` [Compound 18, (S)-3-((S)-2-(2-(cyclohexylamino)-2-oxoacetamido)-4-methylpentanamido)-2-oxo-4-((S)-2-oxopyrrolidin-3-yl)butyl heptanoate], which EC50 is on record?
Answer: 0.05 to 0.2 µM

Question: For `O=C[C@H](C[C@@H]1CCNC1=O)NC(=O)[C@H](CC1CC1)NC(=O)c1cc(-c2ccccc2F)on1` [Compound 125, N-((S)-3-cyclopropyl-1-oxo-1-(((S)-1-oxo-3-((S)-2-oxopyrrolidin-3-yl)propan-2-yl)amino)propan-2-yl)-5-(2-fluorophenyl)isoxazole-3-carboxamide], which EC50 is on record?
Answer: 0.05 to 0.2 µM

Question: `CC(C)(C)C[C@H](NC(=O)C(=O)Nc1ccccc1C(F)(F)F)C(=O)N[C@H](C[C@@H]1CCCNC1=O)C(=O)CO` [Compound 133, N^1-((S)-1-(((R)-4-hydroxy-3-oxo-1-((S)-2-oxopiperidin-3-yl)butan-2-yl)amino)-4,4-dimethyl-1-oxopentan-2-yl)-N^2-(2-(trifluoromethyl)phenyl)oxalamide] was tested. Which EC50 did it give?
Answer: > 1 µM

Question: Which EC50 does the source give for `Cc1ccccc1NC(=O)C(=O)N1C[C@@H]2CCC[C@@H]2[C@H]1C(=O)N[C@H](C[C@@H]1CCCNC1=O)C(=O)CO` [Compound 92, (1S,3aR,6aS)-N-((R)-4-hydroxy-3-oxo-1-((S)-2-oxopiperidin-3-yl)butan-2-yl)-2-(2-oxo-2-(o-tolylamino)acetyl)octahydrocyclopenta [c]pyrrole-1-carboxamide] here?
Answer: > 1 µM

Question: How did the EC50 turn out when `CC(C)CC(=O)OCC(=O)[C@H](C[C@@H]1CCNC1=O)NC(=O)[C@H](CC(C)C)NC(=O)C(=O)Nc1ccccc1F` [Compound 103, (S)-3-((S)-2-(2-((2-fluorophenyl)amino)-2-oxoacetamido)-4-methylpentanamido)-2-oxo-4-((S)-2-oxopyrrolidin-3-yl)butyl 3-methylbutanoate] was run?
Answer: 0.05 to 0.2 µM

Question: `COc1cccc2[nH]c(C(=O)N[C@@H](CC(C)C)C(=O)N[C@@H](C[C@@H]3CCCNC3=O)C(=O)CO)cc12` [Compound 129, N-((S)-1-(((S)-4-hydroxy-3-oxo-1-((S)-2-oxopiperidin-3-yl)butan-2-yl)amino)-4-methyl-1-oxopentan-2-yl)-4-methoxy-1H-indole-2-carboxamide] was tested. Which EC50 did it give?
Answer: 0.5 to 1 µM

Question: How did the EC50 turn out when `COc1cccc2[nH]c(C(=O)N[C@@H](CC(C)C)C(=O)N[C@@H](C[C@@H]3CCNC3=O)C(=O)CO)cc12` [Compound 1, N-((S)-1-(((S)-4-hydroxy-3-oxo-1-((S)-2-oxopyrrolidin-3-yl)butan-2-yl)amino)-4-methyl-1-oxopentan-2-yl)-4-methoxy-1H-indole-2-carboxamide] was run?
Answer: 0.2 to 0.5 µM

Question: Which EC50 does the source give for `CC(C)C[C@H](NC(=O)C(=O)Nc1ccccc1F)C(=O)N[C@@H](C[C@@H]1CCNC1=O)C(=O)COC(=O)OC(C)C` [Compound 108, (S)-3-((S)-2-(2-((2-fluorophenyl)amino)-2-oxoacetamido)-4-methylpentanamido)-2-oxo-4-((S)-2-oxopyrrolidin-3-yl)butyl isopropyl carbonate] here?
Answer: 0.05 to 0.2 µM

Question: With `CC(=O)OCC(=O)[C@H](C[C@@H]1CCNC1=O)NC(=O)[C@H](CC(C)C)NC(=O)C(=O)Nc1ccccc1F` [Compound 106, (S)-3-((S)-2-(2-((2-fluorophenyl)amino)-2-oxoacetamido)-4-methylpentanamido)-2-oxo-4-((S)-2-oxopyrrolidin-3-yl)butyl acetate] as the compound, how does the EC50 read?
Answer: 0.05 to 0.2 µM

Question: Which EC50 does the source give for `CCCCCCC(=O)OCC(=O)[C@H](C[C@@H]1CCNC1=O)NC(=O)[C@H](CC(C)C)NC(=O)c1cc2ccccc2[nH]1` [Compound 118, (S)-3-((S)-2-(1H-indole-2-carboxamido)-4-methylpentanamido)-2-oxo-4-((S)-2-oxopyrrolidin-3-yl)butyl heptanoate] here?
Answer: 0.05 to 0.2 µM

Question: `CC(C)CC(=O)OCC(=O)[C@H](C[C@@H]1CCCNC1=O)NC(=O)[C@H](CC(C)C)NC(=O)C(=O)Nc1ccccc1F` [Compound 104, (S)-3-((S)-2-(2-((2-fluorophenyl)amino)-2-oxoacetamido)-4-methylpentanamido)-2-oxo-4-((S)-2-oxopiperidin-3-yl)butyl 3-methylbutanoate] was tested. Which EC50 did it give?
Answer: 0.05 to 0.2 µM
